Assay results published in patent publication US6277859A, “Morphinan derivative and its pharmaceutical applications” (priority 1992, dated 2001).
Structures can show the parent of a compound that is named as a salt.

Experiments:
Wistar rats = assay: Evaluation of diuretic action; assay type: in vivo, rat (male Wistar); settings: sc, rat, s.c., urine output for 5 h after 20 ml/kg saline oral; for ED200: read-out: ED200, diuretic action (dose giving urine output of 200, non-dosed group = 100); for ED500: read-out: ED500, diuretic action (dose giving urine output of 500, non-dosed group = 100)
Protocol: Evaluation of Diuretic Action
7-8 week old male Wistar rats were used in this test after prohibiting from drinking water for 1 hour before testing. After discharging any urine accumulated in the bladder by gently stimulating the lower abdomens of the animals, the drug was administered subcutaneously. After 30 minutes, the animals were then forcibly given 20 ml/kg of physiological saline orally. The animals were then placed in metabolic cages immediately after administration of the drug (2 animals/cage) and urine output for 5 hours after loading with physiological saline was measured. Drug efficacy was expressed in the form of those doses resulting in urine outputs of 200 and 500, respectively, when the urine output of a non-dosed group was taken to be 100. Those doses were expressed as the ED200 and ED500 values, respectively.

κ receptor = molecular target: T1, κ receptor (Mus musculus, UniProt P33534); assay: Ke with norBNI in isolated mouse vas deference preparation; assay type: cell-based, mouse (male ddy); settings: for Ke norBNI: norBNI (κ)
T1 construct: The isolated vas deference was filled with Krebes-Henseleit solution; from tissue; host or cells: isolated vas deferens of male ddy mouse
T1 sequence (P33534 whole entry): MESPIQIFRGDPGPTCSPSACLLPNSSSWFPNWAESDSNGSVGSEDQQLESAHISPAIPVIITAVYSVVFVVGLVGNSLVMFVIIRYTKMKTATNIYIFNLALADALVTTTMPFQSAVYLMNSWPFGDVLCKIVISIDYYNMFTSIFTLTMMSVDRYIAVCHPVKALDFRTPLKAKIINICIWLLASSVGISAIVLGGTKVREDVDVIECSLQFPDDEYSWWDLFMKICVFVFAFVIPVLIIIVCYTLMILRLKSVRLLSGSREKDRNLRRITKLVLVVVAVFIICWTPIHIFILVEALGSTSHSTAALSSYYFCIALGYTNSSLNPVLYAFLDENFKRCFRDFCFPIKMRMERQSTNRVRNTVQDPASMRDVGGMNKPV
Protocol: (§1) A male ddy mouse was used in this test. The isolated vas deference was filled with Krebes-Henseleit solution (NaCl 118 mM; KCl 4.7 mM; CaCl2 2.5 mM; KH2 PO4 1.1 mM; NaHCO3 25 mM; and glucose 10 mM) warmed to 37° C. and suspended in a Magnus tube ventilated with 5% carbon dioxide and 95% oxygen. Electrical stimulus was performed at 0.1 Hz for 5.0 ms by means of ring-shaped platinum electrodes located above and below. Tissue contractions were recorded on a polygraph using an isometric transducer.
(§2) Then after adequately washing with nutrient solution and the contraction reaction stabilized, naloxone, a μ […], NTI, a δ […], or norBNI, a κ […], were added and the test compound was again cumulatively added after roughly 20 minutes. The Ke value was calculated using the following calculation formula from the difference in the efficacies of both agonists.
(§3) Ke=[Conc. of added agonist]/(IC50 ratio-1)
(§4) IC50 ratio IC50 in the presence of agonist/IC50 in the absence of agonist

δ receptor = molecular target: T2, δ receptor (Mus musculus, UniProt P32300); assay: Ke with NTI in isolated mouse vas deference preparation; assay type: cell-based, mouse (male ddy); settings: NTI (δ)
T2 construct: The isolated vas deference was filled with Krebes-Henseleit solution; from tissue; host or cells: isolated vas deferens of male ddy mouse
T2 sequence (P32300 whole entry): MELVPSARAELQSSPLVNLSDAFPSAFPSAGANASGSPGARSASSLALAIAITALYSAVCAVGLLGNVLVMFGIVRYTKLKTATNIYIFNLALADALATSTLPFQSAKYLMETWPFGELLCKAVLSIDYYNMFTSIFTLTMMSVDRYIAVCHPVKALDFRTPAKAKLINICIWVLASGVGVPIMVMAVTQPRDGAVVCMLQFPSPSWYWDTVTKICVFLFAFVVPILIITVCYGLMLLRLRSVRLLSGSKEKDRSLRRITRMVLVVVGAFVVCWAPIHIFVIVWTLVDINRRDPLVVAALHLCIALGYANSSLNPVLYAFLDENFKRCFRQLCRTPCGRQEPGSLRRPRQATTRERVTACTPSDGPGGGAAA
Protocol: as §1, §2, §3, §4

μ receptor = molecular target: T3, μ receptor (Mus musculus, UniProt P42866); assay: Ke with naloxone in isolated mouse vas deference preparation; assay type: cell-based, mouse (male ddy)
T3 construct: The isolated vas deference was filled with Krebes-Henseleit solution; from tissue; host or cells: isolated vas deferens of male ddy mouse
T3 sequence (P42866 whole entry): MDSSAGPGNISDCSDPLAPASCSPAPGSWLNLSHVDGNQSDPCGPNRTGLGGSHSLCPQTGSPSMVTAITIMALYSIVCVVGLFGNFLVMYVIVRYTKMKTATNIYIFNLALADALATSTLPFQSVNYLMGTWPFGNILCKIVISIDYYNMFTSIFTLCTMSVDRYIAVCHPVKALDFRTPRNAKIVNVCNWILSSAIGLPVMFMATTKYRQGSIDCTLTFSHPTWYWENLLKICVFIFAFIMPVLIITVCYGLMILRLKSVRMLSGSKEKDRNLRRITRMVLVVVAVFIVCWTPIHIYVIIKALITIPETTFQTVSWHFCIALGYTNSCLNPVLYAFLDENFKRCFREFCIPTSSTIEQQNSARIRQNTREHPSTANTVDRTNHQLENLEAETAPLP
Protocol: as §1, §2, §3, §4

SMILES | ED200 (Wistar rats) [mg/kg] | selective agonist for κ receptors (in words) (κ receptor) | Ke norBNI (κ receptor) [nM] | Ke NTI (δ receptor) [nM] | Ke Naloxone (μ receptor) [nM] | ED500 (Wistar rats) [mg/kg]
CN(C(=O)Cc1ccc(Br)cc1)[C@H]1CC[C@@]2(O)[C@H]3Cc4ccc(O)c5c4[C@@]2(CCN3CC2CC2)[C@H]1O5 [Compound 28, 17-cyclopropylmethyl-3,14β-dihydroxy-4,5α-epoxy-6α-(N-methyl-4-bromophenylacetamido)morphinan.hydrobromide] | 0.02 |  |  |  |  | 
CCCCCCC(=O)N(C)[C@H]1CC[C@@]2(O)[C@H]3Cc4ccc(O)c5c4[C@@]2(CCN3CC2CC2)[C@H]1O5 [Compound 46, 17-cyclopropylmethyl-3,14β-dihydroxy-4,5α-epoxy-6α-(N-methylheptanamido)morphinan.hydrochloride] |  | selective agonists for κ receptors | 0.440 |  |  | 
CN(C(=O)/C=C/C1CCCCC1)[C@H]1CC[C@@]2(O)[C@H]3Cc4ccc(O)c5c4[C@@]2(CCN3CC2CC2)[C@H]1O5 [Compound 50, 17-cyclopropylmethyl-4,5α-epoxy-3,14β-dihydroxy-6α-(N-methyl-trans-3-cyclohexylacrylamido)morphinan.hydrochloride] | 0.0021 |  |  |  |  | 
O=C(Cc1ccc(Cl)c(Cl)c1)N[C@H]1CC[C@@]2(O)[C@H]3Cc4ccc(O)c5c4[C@@]2(CCN3CC2CC2)[C@H]1O5 [Compound 52, 17-cyclopropylmethyl-4,5α-epoxy-3,14β-dihydroxy-6α-(3,4-dichlorophenylacetoamido) morphinan.hydrochloride] |  | selective agonists for κ receptors |  |  |  | 
CN(C(=O)Cc1ccc(Cl)c(Cl)c1)[C@@H]1CC[C@@]2(O)[C@H]3Cc4ccc(O)c5c4[C@@]2(CCN3CC2CC2)[C@H]1O5 [Compound 53, 17-cyclopropylmethyl-4,5α-epoxy-3,14β-dihydroxy-6β-(N-methyl-3,4-dichlorophenylacetoamido)morphinan.hydrochloride] |  |  | 0.21 | 1676 |  | 
CN(C(=O)OCc1ccccc1)[C@@H]1CC[C@@]2(O)[C@H]3Cc4ccc(O)c5c4[C@@]2(CCN3CC2CC2)[C@H]1O5 [Compound 56, 17-cyclopropylmethyl-3,14β-dihydroxy-4,5α-epoxy-60-(N-methylbenzyloxycarbamido)morphinan.hydrochloride] | 0.0028 |  |  |  |  | 
CN(C(=O)CCc1ccccc1)[C@@H]1CC[C@@]2(O)[C@H]3Cc4ccc(O)c5c4[C@@]2(CCN3CC2CC2)[C@H]1O5 [Compound 57, 17-cyclopropylmethyl-3,14β-dihydroxy-4,5α-epoxy-60-(N-methyl-3-phenylpropionamido) morphinan.hydrochloride] |  | selective agonists for κ receptors | 0.0124 | 747 |  | 
CCCCOC(=O)N(C)[C@@H]1CC[C@@]2(O)[C@H]3Cc4ccc(O)c5c4[C@@]2(CCN3CC2CC2)[C@H]1O5 [Compound 59, 17-cyclopropylmethyl-3,14β-dihydroxy-4,5α-epoxy-6β-(N-methylbutyroxycarbamido)morphinan.tartrate] |  | selective agonists for κ receptors | 0.151 | 47.3 | 21.3 | 
CCCCCC(=O)N(C)[C@@H]1CC[C@@]2(O)[C@H]3Cc4ccc(O)c5c4[C@@]2(CCN3CC2CC2)[C@H]1O5 [Compound 62, 17-cyclopropylmethyl-3,14β-dihydroxy-4,5α-epoxy-6β-(N-methylhexanamido)morphinan.tartrate] |  | selective agonists for κ receptors | 0.203 | 90.2 |  | 
CN(C(=O)/C=C/c1ccc(C(F)(F)F)cc1)[C@@H]1CC[C@@]2(O)[C@H]3Cc4ccc(O)c5c4[C@@]2(CCN3CC2CC2)[C@H]1O5 [Compound 73, 17-cyclopropylmethyl-3,14,β-dihydroxy-4,5α-epoxy-6β-(N-methyl-4-trifluoromethylcinnamamido) morphinan.tartrate] |  | selective agonists for κ receptors | 0.272 | 78 | 524 | 
CN(C(=O)/C=C/c1ccc(Cl)c(Cl)c1)[C@H]1CC[C@@]2(O)[C@H]3Cc4ccc(O)c5c4[C@@]2(CCN3CC2CC2)[C@H]1O5 [Compound 86, 17-cyclopropylmethyl-3,14β-dihydroxy-4,5α-epoxy-6α-(N-methyl-3,4-dichlorocinnamamido) morphinan.hydrochloride] | 0.0057 |  |  |  |  | 
CN(C(=O)/C=C/c1ccsc1)[C@H]1CC[C@@]2(O)[C@H]3Cc4ccc(O)c5c4[C@@]2(CCN3CC2CC2)[C@H]1O5 [Compound 91, 17-cyclopropylmethyl-3,14β-dihydroxy-4,5α-epoxy-6α-[N-methyl-trans-3-(3-thienyl)acrylamido]morphinan.tartrate] | 0.0094 | selective agonists for κ receptors | 0.699 | 450 |  | 0.96
CCC/C=C/C(=O)N(C)[C@H]1CC[C@@]2(O)[C@H]3Cc4ccc(O)c5c4[C@@]2(CCN3CC2CC2)[C@H]1O5 [Compound 95, 17-cyclopropylmethyl-3,14β-dihydroxy-4,5α-epoxy-6α-(N-methyl-trans-2-hexenamido)morphinan.tartrate] | 0.0028 |  |  |  |  | 
CN(C(=O)CC(=O)c1ccccc1)[C@@H]1CC[C@@]2(O)[C@H]3Cc4ccc(O)c5c4[C@@]2(CCN3CC2CC2)[C@H]1O5 [Compound 103, 17-cyclopropylmethyl-3,14β-dihydroxy-4,5α-epoxy-6β-(N-methylbenzoylacetamido)morphinan.tartrate] |  | selective agonists for κ receptors | 0.657 |  |  | 
CN(C(=O)Cc1ccc(F)c(F)c1)[C@H]1CC[C@@]2(O)[C@H]3Cc4ccc(O)c5c4[C@@]2(CCN3CC2CC2)[C@H]1O5 [Compound 105, 17-cyclopropylmethyl-3,14β-dihydroxy-4,5α-epoxy-6α-(N-methyl-3,4-difluorophenylacetamido)morphinan.hydrochloride] | 0.019 |  |  |  |  | 3.3
CN(C(=O)Cc1csc2ccccc12)[C@H]1CC[C@@]2(O)[C@H]3Cc4ccc(O)c5c4[C@@]2(CCN3CC2CC2)[C@H]1O5 [Compound 107, 17-cyclopropylmethyl-3,14β-dihydroxy-4,5α-epoxy-6α-(N-methyl-3-benzo[b]thienylacetamido)morphinan.hydrochloride] | 0.0061 |  |  |  |  | 0.2
CN(C(=O)Cc1cccc(C(F)(F)F)c1)[C@H]1CC[C@@]2(O)[C@H]3Cc4ccc(O)c5c4[C@@]2(CCN3CC2CC2)[C@H]1O5 [Compound 108, 17-cyclopropylmethyl-3,14β-dihydroxy-4,5α-epoxy-6α-(N-methyl-3-trifluoromethylphenylacetamido) morphinan.hydrochloride] | 0.021 |  |  |  |  | 
